Experimental data: patent publication US6355799B1, “Substituted benzene compounds, process for their preparation, and herbicidal and defoliant compositions containing them” (ISK Americas Incorporated, priority 1997, dated 2002)

Columns and labels:
Assay type in all cases: in vivo
[1] = system: upland rice (Oryza sp., var. Tebonnet, RICE); test: Pre-emerge test, crop safety; conditions: rating scale 0-100, 14 days after application
Outline: (§1)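 Compounds in acetone were track-sprayed at 15-1000 g ai/ha (187 l/ha) on sandy loam pots: pre-emerge one day after seeding, post-emerge at 2-3 leaf stage with 0.25% v/v non-ionic surfactant. Phytotoxicity was rated 14 days later on a 0 (no damage) to 100 (complete death) scale.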

[2] = system: field corn (Zea mays L., var. Dekalb 535, CORN); test: Pre-emerge test, crop safety; conditions: rating scale 0-100, 14 days after application
Outline: as §1

[3] = system: upland rice (Oryza sp., var. Tebonnet, RICE); test: Post-emerge test, crop safety; conditions: rating scale 0-100 (0 no damage, 100 complete death), 14 days after application
Outline: (§2)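 Rating: 0–100 visual injury, 14 DAA. Application: acetone, 187 l/ha, 15–1000 g ai/ha, flat-fan track sprayer with nozzle 40–45 cm above soil or canopy. Post-emerge runs used 0.25% v/v surfactant on 2–3 leaf plants.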

[4] = system: field corn (Zea mays L., var. Dekalb 535, CORN); test: Post-emerge test, crop safety; conditions: rating scale 0-100 (0 no damage, 100 complete death), 14 days after application
Outline: as §2

[5] = system: green foxtail (Setaria viridis, SETVI); test: Pre-emerge test, greenhouse herbicide activity screening; conditions: rating scale 0-100, 14 days after application
Outline: (§3)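 Compounds in acetone were track-sprayed at 15–1000 g ai/ha: pre-emergence onto soil sown the previous day, then top-watered to incorporate and later bottom-watered; post-emergence onto 2–3 leaf plants with 0.25% v/v surfactant, bottom-watered only. Ratings on a 0–100 phytotoxicity scale were taken at day 14.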

[6] = system: large crabgrass (Digitaria sanguinalis, DIGSA); test: as above; conditions: rating scale 0-100, 14 days after application
Outline: as §3

[7] = system: ivyleaf morningglory (Ipomoea hederacea, IPOHE); test: as above; conditions: rating scale 0-100, 14 days after application
Outline: as §3

[8] = system: barnyardgrass (Echinochloa crus-galli, ECHCG); test: as above; conditions: rating scale 0-100, 14 days after application
Outline: as §3

[9] = system: sicklepod (Cassia obtusifolia, CASOB); test: as above; conditions: rating scale 0-100, 14 days after application
Outline: as §3

[10] = system: lambsquarters (Chenopodium album, CHEAL); test: as above; conditions: rating scale 0-100, 14 days after application
Outline: as §3

[11] = system: velvetleaf (Abutilon theophrasti, ABUTH); test: as above; conditions: rating scale 0-100, 14 days after application
Outline: as §3

[12] = system: common ragweed (Ambrosia artemisizfolia L., AMBEL); test: as above; conditions: rating scale 0-100, 14 days after application
Outline: as §3

[13] = system: johnsongrass (Sorghum halepense, SORHA); test: as above; conditions: rating scale 0-100, 14 days after application
Outline: as §3

[14] = system: redroot pigweed (Amaranthus retroflexus, AMARE); test: as above; conditions: rating scale 0-100, 14 days after application
Outline: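 Visual ratings on a 0-100 scale (0 no damage, 100 all plants dead) were taken at 14 days after treatment. Rates of 15-1000 g ai/ha in acetone, 187 l/ha, were sprayed onto soil one day after planting (pre-emerge) or onto 2-3 leaf plants with 0.25% v/v surfactant (post-emerge).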

[15] = system: green foxtail (Setaria viridis, SETVI); test: Post-emerge test, greenhouse herbicide activity screening; conditions: rating scale 0-100 (0 no damage, 100 complete death), 14 days after application
Outline: (§4)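 Each test used a mechanized track sprayer delivering 187 l/ha of acetone solution at 15–1000 g ai/ha. Post-emerge foliage at 2–3 leaves was treated with added 0.25% v/v non-ionic surfactant and bottom-watered only. Injury was assessed on day 14, where 100 means total kill.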

[16] = system: large crabgrass (Digitaria sanguinalis, DIGSA); test: as above; conditions: rating scale 0-100 (0 no damage, 100 complete death), 14 days after application
Outline: as §4

[17] = system: ivyleaf morningglory (Ipomoea hederacea, IPOHE); test: as above; conditions: rating scale 0-100 (0 no damage, 100 complete death), 14 days after application
Outline: as §4

[18] = system: barnyardgrass (Echinochloa crus-galli, ECHCG); test: as above; conditions: rating scale 0-100 (0 no damage, 100 complete death), 14 days after application
Outline: as §4

[19] = system: sicklepod (Cassia obtusifolia, CASOB); test: as above; conditions: rating scale 0-100 (0 no damage, 100 complete death), 14 days after application
Outline: as §4

[20] = system: redroot pigweed (Amaranthus retroflexus, AMARE); test: as above; conditions: rating scale 0-100 (0 no damage, 100 complete death), 14 days after application
Outline: as §4

[21] = system: lambsquarters (Chenopodium album, CHEAL); test: as above; conditions: rating scale 0-100 (0 no damage, 100 complete death), 14 days after application
Outline: as §4

[22] = system: velvetleaf (Abutilon theophrasti, ABUTH); test: as above; conditions: rating scale 0-100 (0 no damage, 100 complete death), 14 days after application
Outline: as §4

[23] = system: johnsongrass (Sorghum halepense, SORHA); test: as above; conditions: rating scale 0-100 (0 no damage, 100 complete death), 14 days after application
Outline: as §4

With `CCCCCOC(=O)C(Cl)Cc1c(OC)c(Cl)cc(F)c1-n1c(=O)cc(C(F)(F)F)n(C)c1=O` (single isomer, unassigned) [14-10] the “Pre-emerge phytotoxicity rating, crop damage RICE” value ([1]; 63 g ai/ha) was 20, the “Pre-emerge phytotoxicity rating, crop damage RICE” value ([1]; 250 g ai/ha) was 30 and the “Pre-emerge phytotoxicity rating, crop damage CORN” value ([2]; 63 g ai/ha) was 0. For the same compound, the “Pre-emerge phytotoxicity rating, crop damage CORN” value ([2]; 250 g ai/ha) was 40, the “Post-emerge phytotoxicity rating RICE (crop damage)” value ([3]; Rate 63 g ai/ha) was 0 and the “Post-emerge phytotoxicity rating RICE (crop damage)” value ([3]; Rate 250 g ai/ha) was 20. The “Post-emerge phytotoxicity rating CORN (crop damage)” value ([4]; Rate 63 g ai/ha) was 20, the “Post-emerge phytotoxicity rating CORN (crop damage)” value ([4]; Rate 250 g ai/ha) was 60 and the “Pre-emerge herbicidal activity, phytotoxicity rating SETVI” value ([5]; 63 g ai/ha) was 0. The “Pre-emerge herbicidal activity, phytotoxicity rating SETVI” value ([5]; 250 g ai/ha) was 0, the “Pre-emerge herbicidal activity, phytotoxicity rating DIGSA” value ([6]; 63 g ai/ha) was 0 and the “Pre-emerge herbicidal activity, phytotoxicity rating DIGSA” value ([6]; 250 g ai/ha) was 90. For the same compound, the “Pre-emerge herbicidal activity, phytotoxicity rating IPOHE” value ([7]; 63 g ai/ha) was 0, the “Pre-emerge herbicidal activity, phytotoxicity rating IPOHE” value ([7]; 250 g ai/ha) was 70 and the “Pre-emerge herbicidal activity, phytotoxicity rating ECHCG” value ([8]; 63 g ai/ha) was 0. The “Pre-emerge herbicidal activity, phytotoxicity rating ECHCG” value ([8]; 250 g ai/ha) was 0, the “Pre-emerge herbicidal activity, phytotoxicity rating CASOB” value ([9]; 63 g ai/ha) was 0 and the “Pre-emerge herbicidal activity, phytotoxicity rating CASOB” value ([9]; 250 g ai/ha) was 0. For the same compound, the “Pre-emerge herbicidal activity, phytotoxicity rating CHEAL” value ([10]; 63 g ai/ha) was 0, the “Pre-emerge herbicidal activity, phytotoxicity rating CHEAL” value ([10]; 250 g ai/ha) was 100 and the “Pre-emerge herbicidal activity, phytotoxicity rating ABUTH” value ([11]; 63 g ai/ha) was 0. For the same compound, the “Pre-emerge herbicidal activity, phytotoxicity rating ABUTH” value ([11]; 250 g ai/ha) was 90, the “Pre-emerge herbicidal activity, phytotoxicity rating AMBEL” value ([12]; 63 g ai/ha) was 50 and the “Pre-emerge herbicidal activity, phytotoxicity rating AMBEL” value ([12]; 250 g ai/ha) was 100. The “Pre-emerge herbicidal activity, phytotoxicity rating SORHA” value ([13]; 63 g ai/ha) was 0, the “Pre-emerge herbicidal activity, phytotoxicity rating SORHA” value ([13]; 250 g ai/ha) was 30 and the “Pre-emerge herbicidal activity, phytotoxicity rating AMARE” value ([14]; 63 g ai/ha) was 100. The “Pre-emerge herbicidal activity, phytotoxicity rating AMARE” value ([14]; 250 g ai/ha) was 100, the “Post-emerge Herbicidal Activity, phytotoxicity rating SETVI” value ([15]; Rate 63 g ai/ha) was 50 and the “Post-emerge Herbicidal Activity, phytotoxicity rating SETVI” value ([15]; Rate 250 g ai/ha) was 90. For the same compound, the “Post-emerge Herbicidal Activity, phytotoxicity rating DIGSA” value ([16]; Rate 63 g ai/ha) was 10, the “Post-emerge Herbicidal Activity, phytotoxicity rating DIGSA” value ([16]; Rate 250 g ai/ha) was 100 and the “Post-emerge Herbicidal Activity, phytotoxicity rating IPOHE” value ([17]; Rate 63 g ai/ha) was 70. For the same compound, the “Post-emerge Herbicidal Activity, phytotoxicity rating IPOHE” value ([17]; Rate 250 g ai/ha) was 80, the “Post-emerge Herbicidal Activity, phytotoxicity rating ECHCG” value ([18]; Rate 63 g ai/ha) was 95 and the “Post-emerge Herbicidal Activity, phytotoxicity rating ECHCG” value ([18]; Rate 250 g ai/ha) was 100. The “Post-emerge Herbicidal Activity, phytotoxicity rating CASOB” value ([19]; Rate 63 g ai/ha) was 80, the “Post-emerge Herbicidal Activity, phytotoxicity rating CASOB” value ([19]; Rate 250 g ai/ha) was 90 and the “Post-emerge Herbicidal Activity, phytotoxicity rating AMARE” value ([20]; Rate 63 g ai/ha) was 90. The “Post-emerge Herbicidal Activity, phytotoxicity rating AMARE” value ([20]; Rate 250 g ai/ha) was 100, the “Post-emerge Herbicidal Activity, phytotoxicity rating CHEAL” value ([21]; Rate 63 g ai/ha) was 90 and the “Post-emerge Herbicidal Activity, phytotoxicity rating CHEAL” value ([21]; Rate 250 g ai/ha) was 100. The “Post-emerge Herbicidal Activity, phytotoxicity rating ABUTH” value ([22]; Rate 63 g ai/ha) was 80, the “Post-emerge Herbicidal Activity, phytotoxicity rating ABUTH” value ([22]; Rate 250 g ai/ha) was 100 and the “Post-emerge Herbicidal Activity, phytotoxicity rating SORHA” value ([23]; Rate 63 g ai/ha) was 20. The “Post-emerge Herbicidal Activity, phytotoxicity rating SORHA” value ([23]; Rate 250 g ai/ha) was 50.
